# Legend:
# Plasmodium falciparum [1] = assay: Antiplasmodial activity against chloroquine-sensitive Plasmodium falciparum 3D7; type: functional, organism-based
# Plasmodium falciparum [2] = assay: Antimalarial activity against blood stage chloroquine-sensitive Plasmodium falciparum 3D7 infected in erythrocytes assessed as reduction in parasite growth preincubated for 72 hrs followed by addition of [3H]Hypoxanthine and measured after 24 hrs by liquid scintillation counting method; type: functional, organism-based; details: 3D7, Erythrocyte
# Plasmodium falciparum [3] = assay: Antiplasmodial activity against chloroquine-resistant Plasmodium falciparum FCR3; type: functional, organism-based
# Plasmodium falciparum [4] = assay: Antiplasmodial activity against chloroquine-resistant Plasmodium falciparum; type: functional, organism-based
# Plasmodium falciparum [5] = assay: Antimalarial activity against blood stage chloroquine-sensitive Plasmodium falciparum NF54-R infected in erythrocytes assessed as reduction in parasite growth preincubated for 72 hrs followed by addition of [3H]Hypoxanthine and measured after 24 hrs by liquid scintillation counting method; type: functional, organism-based; details: Erythrocyte
# Plasmodium falciparum [6] = assay: Antimalarial activity against chloroquine-resistant Plasmodium falciparum VNS measured after 48 hrs; type: functional, organism-based
# Plasmodium falciparum [7] = assay: Antiplasmodial activity against chloroquine-sensitive Plasmodium falciparum; type: functional, organism-based
# Plasmodium falciparum [8] = assay: Antiplasmodial activity against chloroquine-resistant Plasmodium falciparum Bres1; type: functional, organism-based
# Plasmodium falciparum [9] = assay: Antiplasmodial activity against chloroquine-resistant Plasmodium falciparum W2; type: functional, organism-based
# Plasmodium yoelii yoelii = assay: Antimalarial activity against hepatic stage Plasmodium yoelii yoelii 265 BY for 48 hrs with media renew every 24 hrs; type: functional, organism-based
# Plasmodium falciparum [10] = assay: Antiplasmodial activity against chloroquine-resistant Plasmodium falciparum Palo Alto; type: functional, organism-based
# Plasmodium falciparum [11] = assay: Antimalarial activity against chloroquine-sensitive Plasmodium falciparum FCC1 measured after 48 hrs; type: functional, organism-based; details: FCC1, 48 h
# Plasmodium falciparum [12] = assay: Antiplasmodial activity against asynchronous Plasmodium falciparum 3D7; type: functional, organism-based
# Plasmodium falciparum [13] = assay: Antiplasmodial activity against synchronized Plasmodium falciparum K1; type: functional, organism-based
# Plasmodium falciparum [14] = assay: Antiplasmodial activity against asynchronous Plasmodium falciparum CS2; type: functional, organism-based
# Plasmodium falciparum [15] = assay: Antiplasmodial activity against asynchronous Plasmodium falciparum K1; type: functional, organism-based
# Plasmodium falciparum [16] = assay: Antiplasmodial activity against chloroquine-resistant Plasmodium falciparum K1 measured after 48 hrs; type: functional
# Plasmodium falciparum [17] = assay: Antiplasmodial activity against chloroquine-sensitive Plasmodium falciparum K1 measured after 96 hrs; type: functional
# Plasmodium falciparum [18] = assay: Antiplasmodial activity against chloroquine-sensitive Plasmodium falciparum FC measured after 48 hrs; type: functional
# Plasmodium falciparum [19] = assay: Antiplasmodial activity against synchronized Plasmodium falciparum 3D7; type: functional, organism-based
# Plasmodium falciparum [20] = assay: Antiplasmodial activity against chloroquine-sensitive Plasmodium falciparum FC measured after 96 hrs; type: functional
# Plasmodium falciparum [21] = assay: Antiplasmodial activity against synchronized Plasmodium falciparum CS2; type: functional, organism-based
# Plasmodium falciparum [22] = assay: Antimalarial activity against chloroquine-sensitive Plasmodium falciparum 3D7; type: functional, organism-based
# FM3A = assay: Cytotoxicity against mouse FM3A cells; type: functional, cell-based
# Plasmodium falciparum [23] = assay: Antimalarial activity against Plasmodium falciparum Dd2; type: functional, organism-based
# Plasmodium berghei = assay: Antiplasmodial activity against liver stage Plasmodium berghei ANKA infected in human HepG2 cells measured after 44 hrs; type: functional, organism-based; details: HepG2, 44 h
# Plasmodium falciparum [24] = assay: Antiplasmodial activity against chloroquine-resistant Plasmodium falciparum Fcb1; type: functional, organism-based
smiles,measurement,setting,value
CC1COc2c(N3CCN(C)CC3)c(F)cc3c(=O)c(C(=O)O)cn1c23 (centres undefined) [OFLOXACIN],IC50,Plasmodium falciparum [1],152 µM
same,IC50,Plasmodium falciparum [2],113 µg/mL
same,IC50,Plasmodium falciparum [3],158 µM
same,IC50,Plasmodium falciparum [4],22.3 µg/mL
same,IC50,Plasmodium falciparum [5],58.6 µg/mL
same,IC50,Plasmodium falciparum [6],1770 µM
same,IC50,Plasmodium falciparum [7],22.3 µg/mL
same,IC50,Plasmodium falciparum [8],195 µM
same,IC50,Plasmodium falciparum [9],112 µM
same,IC50,Plasmodium yoelii yoelii,64 µg/mL
same,IC50,Plasmodium falciparum [10],114 µM
same,IC50,Plasmodium falciparum [11],1720 µM
O=C(O)c1cn(C2CC2)c2cc(N3CCNCC3)c(F)cc2c1=O [CIPROFLOXACIN],IC50,Plasmodium falciparum [12],31 µM
same,IC50,Plasmodium falciparum [13],32 µM
same,IC50,Plasmodium falciparum [14],24 µM
same,IC50,Plasmodium falciparum [15],38 µM
same,MIC,Plasmodium falciparum [16],27.2 µg/mL
same,IC50,Plasmodium falciparum [4],6.38 µg/mL
same,IC50,Plasmodium falciparum [5],3.4 µg/mL
same,IC50,Plasmodium falciparum [6],380 µM
same,IC50,Plasmodium falciparum [7],6.38 µg/mL
same,MIC,Plasmodium falciparum [17],4.4 µg/mL
same,MIC,Plasmodium falciparum [18],28.1 µg/mL
same,IC50,Plasmodium yoelii yoelii,44 µg/mL
same,IC50,Plasmodium falciparum [19],31 µM
same,MIC,Plasmodium falciparum [20],2.8 µg/mL
same,IC50,Plasmodium falciparum [21],20 µM
same,IC50,Plasmodium falciparum [11],260 µM
CCOC(=O)/C(=C\n1cc(C(=O)OCC)c(=O)c2cc(F)ccc21)c1cccnc1,IC50,Plasmodium falciparum [22],26 µM
same,IC50,FM3A,100 µM
COc1ccc2c(=O)c(-c3ccc(Oc4ccc(OC(F)(F)F)cc4)cc3)c(C)[nH]c2c1,IC50,Plasmodium falciparum [23],3.85 nM
CCn1cc(C(=O)O)c(=O)c2cc(F)c(N3CCN(C)CC3)cc21 [PEFLOXACIN],IC50,Plasmodium falciparum [2],83.7 µg/mL
same,IC50,Plasmodium falciparum [5],6.5 µg/mL
same,IC50,Plasmodium falciparum [6],850 µM
same,IC50,Plasmodium yoelii yoelii,86.3 µg/mL
same,IC50,Plasmodium falciparum [11],1300 µM
CCOC(=O)/C(=C\n1cc(C(=O)O)c(=O)c2cc(F)ccc21)c1ccccn1,IC50,Plasmodium falciparum [22],21 µM
same,IC50,FM3A,> 100 µM
CCOC(=O)c1cn(/C=C(\C(=O)O)c2cccnc2)c2ccc(F)cc2c1=O,IC50,Plasmodium falciparum [22],29 µM
same,IC50,FM3A,> 100 µM
COc1cc2[nH]c(C)c(-c3ccc(C(F)(F)F)cc3)c(=O)c2cc1Cl,IC50,Plasmodium berghei,3.07 nM
N[C@@H]1[C@H]2CN(c3nc4c(cc3F)c(=O)c(C(=O)O)cn4-c3ccc(F)cc3F)C[C@@H]12 [TROVAFLOXACIN],IC50,Plasmodium falciparum [12],36 µM
same,IC50,Plasmodium falciparum [13],18 µM
same,IC50,Plasmodium falciparum [14],34 µM
same,IC50,Plasmodium falciparum [15],33 µM
same,IC50,Plasmodium falciparum [2],9.6 µg/mL
same,IC50,Plasmodium falciparum [5],9.2 µg/mL
same,IC50,Plasmodium falciparum [19],34 µM
CC(C)=CCC/C(C)=C/CC/C(C)=C/Cc1c(C)[nH]c2ccccc2c1=O [AURACHIN D],IC50,Plasmodium falciparum [24],0.04 µg/mL
CCn1cc(C(=O)O)c(=O)c2cc(F)c(N3CCNCC3)cc21 [NORFLOXACIN],IC50,Plasmodium falciparum [12],66 µM
same,IC50,Plasmodium falciparum [13],67 µM
same,IC50,Plasmodium falciparum [14],55 µM
same,IC50,Plasmodium falciparum [15],54 µM
same,IC50,Plasmodium falciparum [1],55.3 µM
same,IC50,Plasmodium falciparum [2],17.2 µg/mL
same,IC50,Plasmodium falciparum [3],58.6 µM
same,IC50,Plasmodium falciparum [4],11.2 µg/mL
same,IC50,Plasmodium falciparum [5],6.7 µg/mL
same,IC50,Plasmodium falciparum [6],510 µM
same,IC50,Plasmodium falciparum [7],11.2 µg/mL
same,IC50,Plasmodium falciparum [9],74.6 µM
same,IC50,Plasmodium yoelii yoelii,17.8 µg/mL
same,IC50,Plasmodium falciparum [19],55 µM
same,IC50,Plasmodium falciparum [10],54.1 µM
same,IC50,Plasmodium falciparum [21],59 µM
same,IC50,Plasmodium falciparum [11],620 µM
COc1cc2[nH]c(C)c(-c3ccccc3C)c(=O)c2cc1Cl,IC50,Plasmodium berghei,2.82 nM
O=C(O)/C(=C\n1cc(C(=O)O)c(=O)c2cc(F)ccc21)c1cccnc1,IC50,Plasmodium falciparum [22],24 µM
same,IC50,FM3A,> 100 µM
CCN(CC)CCCC(C)Nc1ccnc2cc(Cl)ccc12 (centres undefined) [CHLOROQUINE],IC50,Plasmodium berghei,> 1.2 nM
CCn1cc(C(=O)O)c(=O)c2cc(F)c(N3CCNCC3)nc21 [ENOXACIN],IC50,Plasmodium falciparum [2],38.8 µg/mL
same,IC50,Plasmodium falciparum [5],1.4 µg/mL
same,IC50,Plasmodium falciparum [6],990 µM
same,IC50,Plasmodium yoelii yoelii,> 100 µg/mL
same,IC50,Plasmodium falciparum [11],800 µM
CCOC(=O)/C(=C\n1cc(C(=O)OCC)c(=O)c2cc(F)ccc21)c1ccccn1,IC50,Plasmodium falciparum [22],21 µM
same,IC50,FM3A,> 100 µM
CCOC(=O)/C(=C\n1cc(C(=O)OCC)c(=O)c2cc(F)ccc21)c1ccncc1,IC50,Plasmodium falciparum [22],8.2 µM
same,IC50,FM3A,> 24 µM

# Source: ChEMBL document CHEMBL5244209, “Antiplasmodial and antimalarial activities of quinolone derivatives: An overview” (Eur J Med Chem, 2018)
